Series [1] relates to acute pancreatitis murine model. In words: Caerulein-induced acute pancreatitis murine model. The class given is in vivo, Balb/c mice. The arrangement: Serum IL33 level / Serum TGF-B level: unit not given here. As for the experimental part:
Therapeutic efficacy of the compounds according to the present invention was assessed on an acute pancreatitis murine model. Tissue samples were obtained to allow post in-life analysis of pancreatitis parameters. Plasma samples were also obtained to assess animal exposure levels after administration of the compounds.
Animals: A total of 70 female Balb/c mice aged 8-10 weeks weighing approximately 20-25 g were used for the study (Charles River). After 7 days acclimatization, they were allocated into the different groups. […] Cages, bedding, and water were sanitized before use. Animals were provided with Corn-o-cobs enrichment bedding to provide environment enrichment and nesting material. […] The animal holding room were maintained as follows—room temperature at 20-24° C., humidity at 30-70% and a 12 h light/dark cycle used. Although animals used in this study were immuno-competent, preparation of dosing solutions and dosing/weighing of animals were carried out in a sterile biosafety cabinet.
Final formulation was in 5% DMSO, 10% Solutol, 10% PEG400, 75% 0.9% Saline and pH adjusted to 7 with 0.5M NaOH solution.
Final formulation is in 5% DMSO, 10% Solutol, 10% PEG400, 75% 0.9% Saline and pH adjusted to 7 with 0.5M NaOH solution. For per os (PO) dosing IVc-059a is formulated in water. Drug solutions were formulated on the day of dosing.
The purposes of this study were to assess efficacy compounds in an acute pancreatitis model (14 days), generate tissue samples to allow post in-life analysis of pancreatitis parameters and generate four plasma samples to assess animal exposure levels after first and last injection obtained from blood samples taken 1 h and 24 h after first and last injection.
Study Design: On the first study day animals were randomly be assigned to treatment groups, ensuring an equal spread of bodyweight. Mice (except negative control group) were treated with test compounds were given 5 minutes prior to caerulein dosing, followed by injection with caerulein at […] via intraperitoneal route (IP) daily during the study.
Treatment of test compounds were given 5 minutes prior to caerulein dosing.
Sampling and post in-life analyses: at times indicated above a whole blood sample (60 μl) were taken from the lateral tail vein into tubes coated with K2-EDTA. Plasma samples were prepared and stored frozen at −20° C. Plasma samples were sent to client bioanalysis provider Eurofins (FR) for quantification of compound.
Terminal Sampling: Prior to termination animals were weighed. Terminal study animals were culled via CO2 inhalation. A terminal blood sample was taken via cardiac puncture and plasma prepared. Lipase and Amylase activities were measured via ELISA using commercially available ELISA kits. Remaining plasma was stored for future cytokine analyses. Pancreas tissue was resected and weighed, and a section ([…]) snap frozen and analysed for quantification of compound in pancreas sample. A section ([…]) was processed for measurement of MPO activity, IL-33 and TGF-B levels via ELISA. The remainder was fixed in formalin and embedded in paraffin wax. H&E staining was carried out and section assessed using Schmidts standard scoring system, examining: edema, inflammatory infiltration, parenchymal necrosis, haemorrhage. Massons' Trichrome staining was carried out and area covered by fibrotic tissue quantified digitally using QuPath software. Terminal serum samples was used to assess blood chemistry using an IdeXX CHEM15 and LYTE4 clip (4 animals per treatment group).
Histopathology assessment of pancreatic injury based on 4 criteria: Oedema, Inflammatory infiltration, Parenchymal necrosis, Haemorrhage and scored as described below.
Schmidt score is the evaluation of the efficacy of the compounds based on the four histopathology criteria as described in the table below.

Series [2] has as its system bleomycin induced pulmonary fibrosis. In words: Bleomycin induced pulmonary fibrosis, 21 days. As to conditions: day 21; pirfenidone 100 mg/kg, IVc-059a 15 mg/kg. In kind it is in vivo, mice. As for the experimental part: A total of 40 male Balb/c mice aged 8-10 weeks were used for the study.
Mice were anesthetized using an IP injection of xylazine and ketamine. Once an appropriate plane of anaesthesia was achieved, animals had 1.0 U/kg bleomycin sulphate instilled via intratracheal route. The total volume of liquid was 50 μL.
Dosing of IV and positive control (pirfenidone) started 24 hours after bleomycin instillation.
Drug solution was formulated immediately prior to dosing. For a dose of 15 mg/kg (enough for 12, 30 g mice) 4.5 mg of compound was weighed out. 75 μl (5%) DMSO added and mixed until drug is in solution. 150 μl (10%) solutol added and vortexed gently, 150 μl (10%) PEG400 added and vortexed gently. 1000 μl PBS (pH7) was added and matrix was measured to ensure pH 7.0 was maintained. Remaining PBS (to a total of 1500 μl) was added. Compound remained in solution. […]
Ashcroft score: Lungs from each animal were FFPE, sectioned and stained with H&E according to an in-house protocol. […] Each lung was scored using the Ashcroft grading system to measure degree of inflammation/fibrosis as per Hubner et al., 2008. […]
An entire lung from each animal was formalin fixed and stored in 70% ethanol. […] Percent area covered by trichrome staining was quantified using Qupath and ImageJ software.

The nature of series [3]: Prodrug stability in human plasma. In kind it is in vitro ADME. Particulars: for half-life: read-out: T1/2 (human plasma).
Series [4] is described as follows: Prodrug stability in mouse plasma. In kind it is in vitro ADME. Particulars: for half-life: read-out: T1/2 (mouse plasma); for remaining after 1 h (mouse plasma): ester cleaved.
For series [5] the following is noted: cited from earlier work.
The nature of the next series: Stability in DMSO. In kind it is physicochemical.
Setting [6] is: 1st experiment, caerulein induced, 15 mg/kg IV, Ib-010a and IVc-059a 150 mg/kg PO, Pirfenidone 40 mg/kg IV.
Where [7] appears, read: 1st experiment, terminal pancreatic tissue, 15 mg/kg IV, Ib-010a and IVc-059a 150 mg/kg PO, Pirfenidone 40 mg/kg IV.
Setting [8] is: 1st experiment, terminal serum, 15 mg/kg IV, Ib-010a and IVc-059a 150 mg/kg PO, Pirfenidone 40 mg/kg IV.
Setting [9] is: second experiment, IV, 15 mg/kg, Pirfenidone 100 mg/kg.

Entries after “also recorded” stand apart in the source; their conditions may differ.

For `Cc1ccc(=O)n(-c2ccccc2)c1` [pirfenidone, reference compound], in series [1] (setting [6]), the “Acinar cell necrosis (group mean score)” value came out at 0.8, the “Haemorrhage (group mean score)” value is on record as 0.4, the “Interstitial oedema (group mean score)” value is listed as 1.0 and the “Leukocyte infiltration (group mean score)” value was 2.0. In series [1] (setting [6]), the “Mean terminal BW (% of initial)” value is reported as 97.6 % of initial, the “Mean terminal pancreas weight” value is listed as 0.136 g and the “Pancreas histopathology observations (H&E)” value is given as “Mild oedema observed; also recorded: Mild haemorrhage observed; also recorded: Mild acinar cell necrosis observed; also recorded: Leukocyte infiltration observed; also recorded: Normal islet morphology observed in areas”. Besides, the “Schmidt Score (H&E)” value in series [1] (1st experiment, caerulein induced, 15 mg/kg IV, Ib-010a and IVc-059a 150 mg/kg PO, Pirfenidone 40 mg/kg IV, induced + vehicle = 10, non-induced = 0) is 4.1. Besides, in series [1] (setting [7]), the “Pancreas IL33 level” value was 78 ± 23, the “Pancreas MPO activity” value was determined as 1.26 and the “Pancreas TGF-B level” value amounted to 289 ± 170. In addition, in series [1] (setting [8]), the “Serum IL33 level” value came to 39.16, the “Serum TGF-B level” value is 5.5, the Serum amylase level was determined as 37.71 and the Serum lipase level is 7.65. Moreover, in series [1] (setting [9]), the Amylase was found to be 45.171 mU/mL, the IL-33 is 226 ± 151 ng/mL, the Lipase came out at 4.541 mU/mL and the MPO amounted to 1.68 ± 0.44 U/mg. In addition, in series [1] (setting [9]), the “Schmidt Score” value was 8 ± 1, the TGF-B was determined as 578 ± 230 ng/mL and the “Trichome staining (Fibrosis % area)” value was determined as 1.277 ± 0.888 % area. Further, the “Lipase activity in serum” value in series [1] (second experiment, pirfenidone 100 mg/kg, compounds 15 mg/k, vs vehicle treated animals) is “significantly lower than that in vehicle treated animals”. For the same compound, the “MPO activity in pancreatic tissue” value in series [1] (second experiment, vs induced vehicle treated controls) is on record as “significantly lower than induced vehicle treated controls”. For the same compound, the “Onset of fibrosis in mouse lung (Ashcroft score)” value in series [2] is “reduced the onset of fibrosis in mouse lung”.

On to `CC(C)(C)C(=O)OCOC(=O)c1cc(O)cc(CS(=O)(=O)Cc2cc(O)cc(C(=O)OCOC(=O)C(C)(C)C)c2O)c1O` [IVc-059a-pivm2, 2,2-Dimethylpropanoyloxymethyl 2,5-dihydroxy-3-[[2,5-dihydroxy-3-(2,2-dimethyl-propanoyloxymethoxycarbonyl)phenyl]methylsulfonylmethyl]benzoate], for which the half-life in series [3] is greater than 3 h; in series [4], 0.235 h. For the same compound, the “Stability in mouse plasma (in words)” value in series [4] is on record as “hydrolyzed rapidly”.

Take `CC(OC(=O)c1cc(NC(=O)c2cc(O)c(C(=O)Nc3ccc(O)c(C(=O)O)c3)cc2O)ccc1O)OC(=O)C(C)(C)C` (stereo not shown) [Ic-007a-pive1, 5-[[4-[[3-[1-(2,2-dimethylpropanoyloxy)ethoxycarbonyl]-4-hydroxy-phenyl]carbamoyl]-2,5-dihydroxy-benzoyl]amino]-2-hydroxy-benzoic acid]: the half-life in series [3] was greater than 3 h. Further, in series [4], the “remaining after 1 h (mouse plasma)” value was found to be 49% and the half-life was 0.743 h.

Take `CC(OC(=O)c1cc(NC(=O)c2cc(O)c(C(=O)Nc3ccc(O)c(C(=O)OC(C)OC(=O)C(C)(C)C)c3)cc2O)ccc1O)OC(=O)C(C)(C)C` (stereo not shown) [Ic-007a-pive2, 1-(2,2-dimethylpropanoyloxy)ethyl 5-[[4-[[3-[1-(2,2-dimethylpropanoyloxy)ethoxycarbonyl]-4-hydroxy-phenyl]carbamoyl]-2,5-dihydroxy-benzoyl]amino]-2-hydroxybenzoate]: the half-life in series [3] is greater than 3 h. Besides, in series [4], the “remaining after 1 h (mouse plasma)” value came out at 65% and the half-life worked out at 1.04 h.

Regarding `O=C(OCCN1CCOCC1)c1cc(O)cc(CS(=O)(=O)Cc2cc(O)cc(C(=O)OCCN3CCOCC3)c2O)c1O` [IVc-059a-mpe2, 2,5-Dihydroxy-3-[[2,5-hydroxy-3-(2-morpholinoethoxycarbonyl)phenyl]methylsulfonyl-methyl]benzoic acid 2-morpholinoethyl ester], the “T1/2 (human plasma)” value in series [3] is greater than 3 h. The “Stability in mouse plasma (in words)” value in series [4] was “stable up to 60 min”.

Turning to `CNC(=O)c1cccc(C(=O)NC)c1O` [bis (N-methyl)amide of 2-hydroxyisophthalic acid], in series [5], the pKa of phenol is 6.81.

Turning to `O=C(O)c1cc(O)c(-c2nc3cccc(C(=O)O)c3[nH]2)cc1O` [Id-030a, 2-(4-Carboxy-2,5-dihydroxyphenyl)-1H-benzo[d]imidazole-4-carboxylic acid], the “Stability in DMSO (in words)” value in the series “Stability in DMSO” is given as “unstable in DMSO”.

Consider `CC(OC(=O)c1cc(O)cc(CS(=O)(=O)Cc2cc(O)cc(C(=O)OC(C)OC(=O)C(C)(C)C)c2O)c1O)OC(=O)C(C)(C)C` (stereo not shown) [IVc-059a-pive2, 3-[[3-[1-(2,2-Dimethylpropanoyloxy)ethoxycarbonyl]-2,5-dihydroxy-phenyl]methyl-sulfonyl-methyl]-2,5-dihydroxy-benzoic acid 1-(2,2-dimethylpropanoyloxy)ethyl ester], for which the “Stability in human plasma (in words)” value in series [3] is recorded as “hydrolyzed rapidly”. Also, in series [4], the “Stability in mouse plasma (in words)” value is on record as “hydrolyzed rapidly”.
